The source of these data is patent publication US9624235B2, “Compounds and methods for inhibition of AP endonuclease-1/redox factor-1 (HAPE1) activity” (University of Pittsburgh—Of the Commonwealth System of …, priority 2012, dated 2017).

The GI50 is the concentration that inhibits growth by half. By IC50 is commonly meant the concentration at which inhibition is half-maximal. For orientation: Kd means the free concentration of one partner at which half of the binding sites on the other are occupied at equilibrium, for simple one-to-one binding. For orientation: Ki means a measure of affinity in units of concentration, obtained from inhibition or displacement.

Read-outs that look alike come from different tables or passages of the source.

The test system of experiment [1] is leukemia cell lines. Put plainly: NCI 60 cell line growth inhibition. It is filed as cell-based.
Experiment [2] addresses T1, APE-1 (Homo sapiens (Human), UniProt P27695). Put plainly: Gel-based excision assay for APE-1 inhibitors. It is filed as biochemical. The note with it: APE-1 cleaved fragment vs. full length DNA substrate. How it is done:
Screening for APE-1 Inhibitors. […] In this assay, the DNA hairpin substrate has a 6-FAM fluorophore on the 5′-terminus, a DABACYL fluorescence quencher on the 3′-terminus and a THF abasic site located 6 base pairs from the 5′-terminus in the stem region (FIG. 6). APE-1 activity is monitored as an increase in fluorescence due to the release of the 5′-(6-FAM)-GCACT fragment as a function of time. […] In this assay, substrate turnover was calculated from relative intensities of cleaved vs. intact oligomers and correlated with inhibitor concentration.

The subject of experiment [3] is T98G cells. Put plainly: Short term (72 h) MTS cytotoxicity assay. It is filed as cell-based, human. Here is the method: (§1) Cytotoxic Effects of APE-1 Inhibitors on Cultured Human Glioblastoma (T98G) Cells. Human glioblastoma cells (T98G) were maintained in growth medium as described above. […] The cells were allowed to attach and grow for 24 h, and then treated with serial dilutions of the drug for 72 h. After treatment, viable cells were measured by an MTS assay using the CellTiter 96 AQueous kit (Promega) as per manufacturer's instructions. […] The cells were allowed to attach and grow for 24 h and treated with serial dilutions of the drug for 240 h. After treatment, viable cells were measured using the CyQUANT cell proliferation assay kit (Invitrogen) as per manufacturer's instructions.
(§2) Toxicity. It was assumed that inhibition of APE-1 activity would be lead to toxicity since genetic deletion of the protein is lethal to cells. […] The toxicities were also determined in combination with the DNA minor groove methylating agent, MeLex. MeLex efficiently and selectively generates N3-methyladenine, which is converted into an abasic site by a BER glycosylase and/or hydrolytic depurination. The T98G cell line is relatively resistant to DNA damaging anticancer agents due to expression of multiple drug resistance proteins and O^6-alkylguanine-DNA alkyltransferase. […] A goal of the development of APE-1 inhibitors is to determine if they can be used to enhance the activity of DNA alkylating agents.
(Tetrazolium dyes change colour on reduction, which living cells bring about.)

Experiment [4] concerns aldehyde reactive sites in genomic DNA from T98G cells. It is filed as cell-based, human.
Description: Quantification of Abasic Sites. T98G cells maintained in growth medium, were harvested by Trypsin-EDTA treatment, resuspended in fresh growth medium at a density of 2.5×10^5 cells mL^−1, and 2 mL (5×10^5 cells) of this suspension was seeded into the wells of a sterile 6-well tissue culture plate. Cells were allowed to grow for 24 h, treated with the various compounds for different time points and/or at different concentrations. At the end of each treatment, adherent cells were harvested by trypsin-EDTA treatment and pooled with live and dead cells in culture supernatant. Pooled cells in suspension were pelleted by centrifugation, washed with 1×PBS and genomic DNA was isolated using the DNAzol reagent (Invitrogen). DNA in solution was quantified by UV absorbance (λ260 nm) using a Synergy H1 multiwell plate reader (BioTek, Winooski, Vt.). Abasic sites in purified DNA were then reacted with the biotin-conjugated aldehyde reactive probe (ARP), immobilized onto 96-well ELISA plates, and detected using horseradish peroxidase (HRP)-conjugated streptavidin using a colorimetric substrate as per manufacturer's instructions (Dojindo Molecular Technologies, Rockville, Md.).
The biotin tagged ARS are quantified using an avidin-biotin assay, followed by colorimetric detection with horseradish peroxidase conjugated to avidin.
Experiment [5] addresses T1, APE-1. Put plainly: Fluorescence binding of 4 to APE-1 protein. To be noted: 1 μM APE-1, fluorescence increase. How it is done: Fluorescence and UV Spectrometry Binding Studies. The fluorescence spectra were measured at room temperature on a Cary Eclipse fluorescence spectrometer (Varian, Palo Alto, Calif.). The fluorescence properties of 1 and 4 were measured in 10 mM HEPES, 0.5 mM MgCl2, 100 mM KCl, 100 mM NaCl, 2% glycerol, in absence or presence of wild type (unmodified) hairpin DNA (5′-[…]-3′) or THF-modified hairpin DNA (5′-CGAXTTCGCAGGACCGAATTCG-3′) or APE-1 protein. A solution of 0.5 μM of either DNA sequence was titrated against 1-10 μM ethidium bromide (EtBr) to determine saturation of EtBr by fluorescence (530 nm excitation with 610 nm emission) and the subsequent displacement of EtBr (4 μM) by 1-20 μM 1 or 4 was also assayed. The APE protein-inhibitor binding fluorescence was assayed by titrating 0.1-20 μM of 4 against 1 μM of APE-1 protein.
Interaction of Inhibitors with APE-1 Protein. To establish whether there is a direct interaction between an inhibitor and APE-1, the fluorescence spectra of 4 was determined in the absence and presence of increasing amounts of the protein.

The target in experiment [6] is APE-1 activity in T98G cell nuclear lysates (Homo sapiens (Human), UniProt P27695). As to the kind of experiment: Molecular beacon assay in T98G cell nuclear extracts. It is filed as biochemical. Here is the method: Isolation and Assay of APE-1 Protein from Nuclear Extracts of Glioma Cells. Human glioblastoma cells (T98G) were maintained in growth medium, i.e., Eagle's Minimum Essential Medium (EMEM) with 10% fetal bovine serum (FBS), […] gentamycin, 1×MEM non-essential amino acids and 1 mM sodium pyruvate. Cells were harvested by Trypsin-EDTA treatment, washed with 1×PBS and nuclear proteins isolated using the CelLytic NuCLEAR Extraction kit (Sigma-Aldrich) as per manufacturer's instructions. Isolated nuclear proteins were estimated colorimetrically (BCA protein assay) and stored at −80° C. (long term) or at −20° C. during regular use. To assay APE-1 activity in T98G cells, nuclear extracts were serially diluted in 10 mM HEPES, 50 mM KCl, 1 mM DTT, 20% (v/v) glycerol and the activities measured via the molecular beacon assay (as described above). […] EC2 nM of nuclear extracts was incubated with 2 to 500 nM hairpin DNA substrate and the V0 measured for each value of [S]. Finally, the apparent KM* was deduced using the software algorithm in Prism (as described previously), and the KM* was used to determine the apparent Ki*. Inhibition of EC2 nM APE-1 activity by the inhibitors was assayed via the molecular beacon assay (described above).
Inhibition of APE-1 Activity in Nuclear Lysates. The ability of 1-5 and 8 to block APE-1 endonuclease activity in a complex mixture of proteins from T98G cell nuclear lysates was tested using the molecular beacon assay. The APE-1 activity in the lysates was standardized to give ˜90% turnover of 25 nM substrate in 10 min.

Experiment [7] concerns T98G cells. As to the kind of experiment: Potentiation of MeLex cytotoxicity, long term (10 d) CyQUANT assay. It is filed as cell-based, human. How it is done:
(§3) Cytotoxic Potentiation of Various DNA Damaging Agents. T98G cells maintained in growth medium were resuspended in fresh growth medium and seeded into 96-well plates at 2000 cells/well (short term cytotoxicity) or 100 cells/well (long term cytotoxicity) as described in the previous section. After 24 h, the cells were treated with serial dilutions of various DNA damaging drugs in absence or presence of APE-1 inhibitors. At the end of the treatment period, cell survival was assayed using CellTiter 96 AQueous or CyQUANT kits for the short- and long-term studies respectively.
as §2

The test system of experiment [8] is T98G cells. As to the kind of experiment: Long term (10-day) CyQUANT cytotoxicity assay. It is filed as cell-based, human. How it is done:
as §1, §2

The subject of experiment [9] is SK-MEL-5 (melanoma) line. Put plainly: NCI 60 cell line growth inhibition. It is filed as cell-based. To be noted: Homo sapiens; 4 alone, SK-MEL-5 line.
Experiment [10] concerns T98G cells. As to the kind of experiment: Potentiation of MeLex cytotoxicity, short term (72 h) MTS assay. It is filed as cell-based, human. Here is the method:
as §3, §2

T1 sequence (P27695 whole entry, the tested form may be a part): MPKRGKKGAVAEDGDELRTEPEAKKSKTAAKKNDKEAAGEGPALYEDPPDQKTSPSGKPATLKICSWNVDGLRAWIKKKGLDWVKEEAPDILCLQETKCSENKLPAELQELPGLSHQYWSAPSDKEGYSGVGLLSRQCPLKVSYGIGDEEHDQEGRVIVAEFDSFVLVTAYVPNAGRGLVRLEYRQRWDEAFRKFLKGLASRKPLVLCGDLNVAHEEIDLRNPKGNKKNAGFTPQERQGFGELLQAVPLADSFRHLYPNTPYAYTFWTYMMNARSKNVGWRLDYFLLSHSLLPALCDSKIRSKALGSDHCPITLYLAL
APE-1 activity in T98G cell nuclear lysates, sequence (P27695 whole entry, stated change not applied): as the sequence (P27695 whole entry, the tested form may be a part) above

On to `CCn1c2ccccc2c2cc(/C=N/Nc3cc(C)nc4cc5c(cc34)OCO5)ccc21` [Compound 4], for which the GI50 in [1] (60 cell, 6 leukemia cell lines, read-out: GI50 overall average leukemia cell lines) is 1800 ± 2900 nM; in experiment [1] (Homo sapiens, HL-60 omitted, read-out: GI50 leukemia cell lines, HL-60 line omitted) it was 640 ± 400 nM; in [9] it was 4000 nM. This compound also registered an IC50 in [2] of 4100 nM. The figures for the LD10 concentration in experiment [3] (72 h MTS assay) and in experiment [8] (long term assay) were 0.25 µM and 0.08 µM, respectively. In addition, the LD50 in [3] (MTS assay, T98G) is recorded as 960 nM. Further, the “level of ARS” value in experiment [4] (0.25 μM compound, maintained from 6 h until 18 h) is “approximately 17 ARS/10^5 nucleotides”. Besides, in experiment [4] (80 μM MeLex + 0.25 μM inhibitor, through at least 12 h), the “level of ARS in combination with MeLex” value was 63 sites/10^5 nucleotides. The Kd in experiment [5] came to 6150 nM. For the same compound, in experiment [6], the affinity, expressed as Ki, was 210 nM. Also, the “LD50 of MeLex in the presence of LD10 concentration of inhibitor” value amounted to 1.6 µM in experiment [7] and 49 µM in experiment [10] (72 h MTS assay). The “maximum potentiation of MeLex” value in experiment [7] and in experiment [10] (short term assay) was “approximately 5 fold” each time. In experiment [8] (long term (clonogenic) assay, T98G), the LD50 / toxicity is 190 nM.
